What follows are molecules tested against T1, NLRP3 (Homo sapiens, UniProt Q96P20) (assay: IL-1β production in PMA-differentiated THP-1 cells stimulated with gramicidin (hTHP-1 assay)). Conditions: hTHP-1 assay containing 2% fetal bovine serum; average IC50, class symbols; read-out: NLRP3 Antagonist, human THP1 NLRP3, IL-1b, Normalized: GeoMean IC50.
T1 construct: IL-1β Production in PMA-Differentiated THP-1 Cells Stimulated with Gramicidin; host or cells: THP-1 cells, PMA-differentiated
Type: cell-based
Method: IL-1β Production in PMA-Differentiated THP-1 Cells Stimulated with Gramicidin.
THP-1 cells were purchased from the American Type Culture Collection and sub-cultured according to instructions from the supplier. […] Prior to the experiment THP-1 were treated with PMA (Phorbol 12-myristate 13-acetate) (20 ng/ml) for 16-18 hours. On the day of the experiment the media was removed and adherent cells were detached with trypsin for 5 minutes. […] A vehicle only control was run concurrently with each experiment. Final DMSO concentration was 0.38%.
THP-1 cells were purchased from the American Type Culture Collection and sub-cultured according to instructions from the supplier. […] Prior to the experiment THP-1 were treated with PMA (Phorbol 12-myristate 13-acetate) (20 ng/ml) for 16-18 hours. Compounds were dissolved in dimethyl sulfoxide (DMSO) to generate a 30 mM stock. On the day of the experiment the media was removed and adherent cells were detached with trypsin for 5 minutes. […] Final DMSO concentration was at 0.37%. Cells were incubated with compounds for 1 hour and then stimulated with gramicidin (5 μM) (Enzo) for 2 hours. Plates were then centrifuged at 340 g for 5 min. Cell free supernatant (40 μL) was collected using a 96-channel PlateMaster (Gilson) and the production of IL-1p was evaluated by HTRF (cisbio).
IL-1p Production in PMA-Differentiated THP-1 Cells Stimulated with Gramicidin.
THP-1 cells were purchased from the American Type Culture Collection and sub-cultured according to instructions from the supplier. […] Prior to the experiment, compounds were dissolved in dimethyl sulfoxide (DMSO) to generate a 30 mM stock. […] DMSO was backfilled in the plate to achieve a final DMSO assay concentration of 0.37%. The plate was then sealed and stored at room temperature until required.
THP-1 cells were treated with PMA (Phorbol 12-myristate 13-acetate) (20 ng/ml) for 16-18 hours. On the day of the experiment the media was removed and adherent cells were detached with trypsin for 5 minutes. […] The plates were incubated for 18 h at 4° C. and read using the preset HTRF program (donor emission at 620 nm, acceptor emission at 668 nm) of the SpectraMax i3x spectrophotometer (Molecular Devices, software SoftMax 6).

T1 sequence (Q96P20 whole entry): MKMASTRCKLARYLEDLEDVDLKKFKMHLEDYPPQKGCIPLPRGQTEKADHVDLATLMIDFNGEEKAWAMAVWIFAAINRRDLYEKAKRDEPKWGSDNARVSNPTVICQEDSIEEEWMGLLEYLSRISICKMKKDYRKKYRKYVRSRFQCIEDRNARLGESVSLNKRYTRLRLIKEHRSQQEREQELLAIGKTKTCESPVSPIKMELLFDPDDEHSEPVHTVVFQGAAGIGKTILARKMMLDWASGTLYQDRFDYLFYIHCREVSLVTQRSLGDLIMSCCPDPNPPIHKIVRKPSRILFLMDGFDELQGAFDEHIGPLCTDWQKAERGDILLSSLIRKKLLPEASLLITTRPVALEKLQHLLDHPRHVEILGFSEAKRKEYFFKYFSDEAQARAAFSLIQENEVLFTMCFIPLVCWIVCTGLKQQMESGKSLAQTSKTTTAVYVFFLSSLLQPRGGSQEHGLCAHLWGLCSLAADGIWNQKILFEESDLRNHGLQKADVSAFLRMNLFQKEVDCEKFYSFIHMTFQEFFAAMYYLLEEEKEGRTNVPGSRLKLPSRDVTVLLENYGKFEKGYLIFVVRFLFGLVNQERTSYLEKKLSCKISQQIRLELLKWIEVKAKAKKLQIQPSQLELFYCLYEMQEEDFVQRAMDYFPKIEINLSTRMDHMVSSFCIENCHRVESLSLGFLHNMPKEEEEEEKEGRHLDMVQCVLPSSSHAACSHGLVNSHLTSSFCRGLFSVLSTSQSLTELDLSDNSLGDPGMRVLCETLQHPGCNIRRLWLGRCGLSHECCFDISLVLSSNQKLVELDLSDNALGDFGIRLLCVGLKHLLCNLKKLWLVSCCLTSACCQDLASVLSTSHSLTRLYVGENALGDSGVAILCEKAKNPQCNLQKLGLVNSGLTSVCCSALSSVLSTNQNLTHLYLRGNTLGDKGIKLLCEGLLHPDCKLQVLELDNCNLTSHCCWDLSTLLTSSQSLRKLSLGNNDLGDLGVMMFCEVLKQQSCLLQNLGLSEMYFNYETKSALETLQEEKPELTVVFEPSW

SMILES | IC50 [nM]
CC(C)c1cc(-c2ccc3c(ccn3C(=O)OC(C)(C)C)c2)cc(C(C)C)c1CC(=O)NS(=O)(=O)c1ccc(CN(C)C)cc1 [Compound 115, tert-butyl 5-[4-[2-[[4-[(dimethylamino)methyl]phenyl]sulfonylamino]-2-oxoethyl]-3,5-di(propan-2-yl)phenyl]indole-1-carboxylate] | 5000 to 30000
Cc1ccc(-c2cc(C(C)C)c(CC(=O)NS(=O)(=O)c3ccc(CN(C)C)cc3)c(C(C)C)c2)cc1 [Compound 110, N-[4-[(dimethylamino)methyl]phenyl] sulfonyl-2-[4-(4-methylphenyl)-2,6-di(propan-2-yl)phenyl] acetamide] | 1000 to 5000
CC(C)c1cc(-c2ccc3c(c2)OC(F)(F)O3)cc(C(C)C)c1CC(=O)NS(=O)(=O)c1ccc(CN(C)C)cc1 [Compound 113, 2-[4-(2,2-difluoro-1,3-benzodioxol-5-yl)-2,6-di(propan-2-yl)phenyl]-N-[4-[(dimethylamino)methyl]phenyl] sulfonylacetamide] | 200 to 1000
CC(C)c1cc(C2=CCCC2)cc(C(C)C)c1CC(=O)NS(=O)(=O)c1ccc(CN(C)C)cc1 [Compound 107, 2-[4-(cyclopenten-1-yl)-2,6-di(propan-2-yl)phenyl]-N-[4-[(dimethylamino)methyl]phenyl] sulfonylacetamide] | 1000 to 5000
CC(C)c1cc(-c2ccc(Cl)c(Cl)c2)cc(C(C)C)c1CC(=O)NS(=O)(=O)c1ccc(CN(C)C)cc1 [Compound 119, 2-[4-(3,4-dichlorophenyl)-2,6-di(propan-2-yl)phenyl]-N-[4-[(dimethylamino)methyl]phenyl] sulfonylacetamide] | 200 to 1000
CC(C)c1cc(-c2ccccc2S(C)(=O)=O)cc(C(C)C)c1CC(=O)NS(=O)(=O)c1ccc(CN(C)C)cc1 [Compound 125, N-[4-[(dimethylamino)methyl]phenyl] sulfonyl-2-[4-(2-methylsulfonyl-phenyl)-2,6-di(propan-2-yl)phenyl]acetamide] | 5000 to 30000
CC(C)c1cc(-c2ccc(F)c(Cl)c2)cc(C(C)C)c1CC(=O)NS(=O)(=O)c1ccc(CN(C)C)cc1 [Compound 112, 2-[4-(3-chloro-4-fluorophenyl)-2,6-di(propan-2-yl)phenyl]-N-[4-[(dimethylamino)methyl]phenyl] sulfonylacetamide] | 200 to 1000
Cc1cc(-c2cc(C(C)C)c(CC(=O)NS(=O)(=O)c3ccc(CN(C)C)cc3)c(C(C)C)c2)ccc1F [Compound 101] | 200 to 1000
CC(C)c1cc(-c2ccccc2CO)cc(C(C)C)c1CC(=O)NS(=O)(=O)c1ccc(CN(C)C)cc1 [Compound 124, N-[4-[(dimethylamino)methyl]phenyl] sulfonyl-2-[4-[2-(hydroxymethyl)phenyl]-2,6-di(propan-2-yl)phenyl]acetamide] | 5000 to 30000
CC(C)c1cc(-c2ccc(Cl)cc2)cc(C(C)C)c1CC(=O)NS(=O)(=O)c1ccc(CN(C)C)cc1 [Compound 116, 2-[4-(4-chlorophenyl)-2,6-di(propan-2-yl)phenyl]-N-[4-[(dimethylamino)methyl]phenyl] sulfonylacetamide] | 1000 to 5000
CC(C)c1cc(-c2ccccc2OCc2ccccc2)cc(C(C)C)c1CC(=O)NS(=O)(=O)c1ccc(CN(C)C)cc1 [Compound 102, N-[4-[(dimethylamino)methyl]phenyl] sulfonyl-2-[4-(2-phenylmethoxy-phenyl)-2,6-di(propan-2-yl)phenyl]acetamide] | 5000 to 30000
Cc1ccc(-c2cc(C(C)C)c(CC(=O)NS(=O)(=O)c3ccc(CN(C)C)cc3)c(C(C)C)c2)cc1F [Compound 111, N-[4-[(dimethylamino)methyl]phenyl] sulfonyl-2-[4-(3-fluoro-4-methylphenyl)-2,6-di(propan-2-yl)phenyl]acetamide] | 1000 to 5000

Next, values leading:

IC50 [nM] | SMILES
40 to 200 | CC(C)c1cc(C#CC2CCCC2)cc(C(C)C)c1CC(=O)NS(=O)(=O)c1ccc(CN(C)C)cc1 [Compound 370, 2-[4-(2-cyclopentylethynyl)-2,6-bis(propan-2-yl)phenyl]-N-{4-[(dimethylamino)methyl]benzene-sulfonyl}acetamide]
40 to 200 | CC(C)c1cc(C#CC2CCCCC2)cc(C(C)C)c1CC(=O)NS(=O)(=O)c1ccc(CN(C)C)cc1 [Compound 324, 2-[4-(2-cyclohexylethynyl)-2,6-bis(propan-2-yl)phenyl]-N-{4-[(dimethylamino)methyl]benzene-sulfonyl}acetamide]
5000 to 30000 | CC(C)c1cc(CC2CCCCC2)cc(C(C)C)c1CC(=O)NS(=O)(=O)c1ccc(CN(C)C)cc1 [Compound 378, 2-[4-(cyclohexylmethyl)-2,6-bis(propan-2-yl)phenyl]-N-{4-[(dimethylamino)methyl]benzenesulfonyl}acetamide]
1000 to 5000 | CC(C)c1cc(CC2=CCCCC2)cc(C(C)C)c1CC(=O)NS(=O)(=O)c1ccc(CN(C)C)cc1 [Compound 377, 2-[4-(cyclohex-1-en-1-ylmethyl)-2,6-bis(propan-2-yl)phenyl]-N-{4-[(dimethylamino)methyl]benzenesulfonyl}acetamide]
1000 to 5000 | C/C=C(\C)c1cc(C(C)C)c(CC(=O)NS(=O)(=O)c2ccc(CN(C)C)cc2)c(C(C)C)c1 [Compound 145]
1000 to 5000 | CC(C)c1cc(C2Cc3ccccc3C2)cc(C(C)C)c1CC(=O)NS(=O)(=O)c1ccc(CN(C)C)cc1 [Compound 323, 2-[4-(2,3-dihydro-1H-inden-2-yl)-2,6-bis(propan-2-yl)phenyl]-N-{4-[(dimethylamino)methyl]benzene-sulfonyl}acetamide]
1000 to 5000 | CC(C)c1cc(C2CCc3ccccc3C2)cc(C(C)C)c1CC(=O)NS(=O)(=O)c1ccc(CN(C)C)cc1 (centres unmarked) [Compound 314, 2-[2,6-bis(propan-2-yl)-4-(1,2,3,4-tetrahydronaphthalen-2-yl)phenyl]-N-{4-[(dimethylamino)methyl]benzene-sulfonyl}acetamide]
200 to 1000 | Cc1cc(-c2cc(C(C)C)c(CC(=O)NS(=O)(=O)c3ccc(CN(C)C)cc3)c(C(C)C)c2)ccc1Cl [Compound 146]
1000 to 5000 | CC(C)c1cc(C2CCCc3ccccc32)cc(C(C)C)c1CC(=O)NS(=O)(=O)c1ccc(CN(C)C)cc1 (centres unmarked) [Compound 321, 2-[2,6-bis(propan-2-yl)-4-(1,2,3,4-tetrahydronaphthalen-1-yl)phenyl]-N-{4-[(dimethylamino)methyl]benzene-sulfonyl}acetamide]
1000 to 5000 | CC(C)c1cc(CCC2CCCC2)cc(C(C)C)c1CC(=O)NS(=O)(=O)c1ccc(CN(C)C)cc1 [Compound 325, 2-[4-(2-cyclopentylethyl)-2,6-bis(propan-2-yl)phenyl]-N-{4-[(dimethylamino)methyl]benzene-sulfonyl}acetamide]
1000 to 5000 | CC(C)c1cc(C2CCC(C)(C)CC2)cc(C(C)C)c1CC(=O)NS(=O)(=O)c1ccc(CN(C)C)cc1 [Compound 316, N-{4-[(dimethylamino)methyl]benzene-sulfonyl}-2-[4-(4,4-dimethylcyclohexyl)-2,6-bis(propan-2-yl)phenyl]acetamide]
1000 to 5000 | C=C(C)c1cc(C(C)C)c(CC(=O)NS(=O)(=O)c2ccc(CN(C)C)cc2)c(C(C)C)c1 [Compound 147]
5000 to 30000 | CC(C)c1cc(C2CCCC2)cc(C(C)C)c1CC(=O)NS(=O)(=O)c1ccc(CN(C)C)cc1 [Compound 355, 2-[4-cyclopentyl-2,6-bis(propan-2-yl)phenyl]-N-{4-[(dimethylamino)methyl]benzene-sulfonyl}acetamide]
40 to 200 | CC(C)c1cc(-c2ccc3ccccc3c2)cc(C(C)C)c1CC(=O)NS(=O)(=O)c1ccc(CN(C)C)cc1 [Compound 139, N-[4-[(dimethylamino)methyl]phenyl] sulfonyl-2-[4-naphthalen-2-yl-2,6-di(propan-2-yl)phenyl] acetamide]

Same assay, conditions: hTHP-1 assay containing 2% fetal bovine serum; average IC50, given as numeric bound; read-out: NLRP3 Antagonist, human THP1 NLRP3, IL-1b, Normalized: GeoMean IC50

IC50 [nM] | SMILES
> 30000 | CC(C)c1cc(-c2cnn(C)c2)cc(C(C)C)c1CC(=O)NS(=O)(=O)c1ccc(CN(C)C)cc1 [Compound 106, N-[4-[(dimethylamino)methyl]phenyl] sulfonyl-2-[4-(1-methylpyrazol-4-yl)-2,6-di(propan-2-yl)phenyl] acetamide]
> 30000 | CC(C)c1cc(C2CCOC2)cc(C(C)C)c1CC(=O)NS(=O)(=O)c1ccc(CN(C)C)cc1 (centres unmarked) [Compound 315, N-{4-[(dimethylamino)methyl]benzene-sulfonyl}-2-[4-(oxolan-3-yl)-2,6-bis(propan-2-yl)phenyl]acetamide]
> 30000 | CC(C)c1cc(C(O)c2ccccc2)cc(C(C)C)c1CC(=O)NS(=O)(=O)c1ccc(CN(C)C)cc1 (centres unmarked) [Compound 372, N-{4-[(dimethylamino)methyl]benzenesulfonyl}-2-(4-[hydroxy(phenyl)methyl]-2,6-bis(propan-2-yl)phenyl)acetamide]
